For one assay, the system named is GABAA receptors. Nature of the assay: Electrophysiology assay (two-electrode voltage clamp, Xenopus oocytes expressing GABAA receptors). In kind it is cell-based. Conditions: positive (Pos) or negative (Neg) modulation of current at GABA EC20, screening concentration of 10 μM. On the procedure: The modulation of GABAA function is determined by changes in current as determined in an electrophysiology assay, as is detailed below.
mRNA was prepared from lyophilized plasmid pellets containing cDNA inserts encoding the specific GABAA receptor subunit. cDNAs encoding the α2, α3, and γ3 subunits were subcloned into pBluescript, SK^−. cDNAs encoding the a 1 and a 5 subunits were subcloned into prC while cDNA encoding the β2 subunit was subcloned into pcDNA1. The cDNA construct encoding the g 2s subunit is in the pGH19 expression construct. Overnight cultures of transformed DH5a bacterial cells were performed to grow sufficient quantities for maxiprep isolation of the plasmid cDNA. The resulting plasmid cDNA was linearized by digestion with an appropriate restriction enzyme that cleaves distal to the cDNA insert [XbaI (α1, β2), NotI (α3, γ2 s), SacII (α2), or ApaI (α5)]. Following digestion, plasmid cDNA was treated with proteinase K and extracted with phenol/chloroform/isoamyl alcohol, followed by ethanol precipitation. cDNA quality was assessed by agarose-gel electrophoresis (1.5% agarose gel). Samples were stored at −20° C. until use. In vitro transcription was performed with T7 RNA polymerase. mRNA was then stored at −80° C. until use. Plasmids were linearized with appropriate restriction enzymes before in vitro transcription using the Message Machine kit (Ambion, Austin, Tex.).
GABAA receptor expression in Xenopus oocytes: Following 45 min of 0.15% Tricaine anesthesia, an ovarian section containing the follicular oocytes was removed from the frog through a lateral abdominal incision. Oocytes were immediately placed in a calcium-free solution (NaCl 96 mM, MgCl2 1 mM, KCl 2 mM, Hepes 50 mM, pyruvate 2.5 mM, gentamycin 100 μg/mL, penicillin-streptomycin 50 U/mL, pH 7.4). Following 1.5-2 hour incubation in 0.2% collagenase (type II, Sigma Chemical Co., St. Louis, Mo.) at room temperature, individual Dumont stage V and VI oocytes were transferred to an incubator and maintained overnight in Barth's solution (NaCl 84 mM, NaHCO3 2.4 mM, MgSO4 0.82 mM, KCl 1 mM, Ca(NO3)2 0.33 mM, CaCl2 0.41 mM, Tris/HCl 7.5 mM, pyruvate 2.5 mM, gentamycin 50 μg/mL, penicillin-streptomycin, 100 units/mL, pH 7.4) at 18-20° C. and used for experiments 1-5 days post-injection. Oocytes were injected solution using an electronic microinjector (Drummond, Broomall, Pa.) with 50 nL of RNA containing 0.3-0.5 ng of each subunit RNA in a 1:1:2 ratio. The injected oocytes were used for experiments after 1-5 days of incubation in Barth's solution at 18-20° C.
Measurements of ion currents from oocytes expressing GABAA receptors were performed using a Warner two-electrode voltage-clamp amplifier (Warner Instruments, Inc., Foster City, Calif.) (Park-Chung, M. A., et al. (1999) Brain Res. 830: 72-87 incorporated herein in its entirety). Microelectrodes were fabricated from borosilicate glass capillaries with a programmed pipette puller (Sutter Instrument Co., CA). Microelectrode resistance was 1-3 MΩ when filled with 3 M KCl. The oocyte recording chamber was continuously perfused with ND-96 solution. Oocytes were clamped at a holding potential of −70 mV during data acquisition. The membrane current was filtered at 10 Hz and sampled at 100 Hz. Compounds were applied by a gravity-driven external perfusion system. The working volume of the recording chamber was […] and the rate of the perfusion was approximately […]. Compound application was 20-25 sec followed by a minimum of 150 sec wash. Data acquisition and external perfusion was computer controlled by custom-developed software. All experiments were performed at room temperature (22-24° C.). Dose-response data from each oocyte were fitted to the Hill equation by non-linear regression using the equation: IGABA=Emax/(1+(EC50/c)nH)
Emax is the maximum response, EC50 is the concentration producing 50% of the maximal response, nH is the Hill coefficient and c is the concentration of agonist. […]

In assay [1] the target is GABAA central benzodiazepine receptor. As to the kind of experiment: Benzodiazepine binding assay ((3H)-flunitrazepam displacement). To be noted: read-out: BZ binding assay (IC50); rat whole brain (except cerebellum), 1 nM (3H)-flunitrazepam, 60 minutes at 25° C.; 3-concentration dose response curve.

The IC50 is the point on the concentration scale where inhibition reaches its midpoint.

Molecules are shown by their SMILES.

Turning to `CC1CN(c2cc3[nH]cc4c(=O)n(-c5ccccc5)nc-4c3cc2F)CC(C)O1` (centres unmarked) [28g, 7-(2,6-Dimethylmorpholin-4-yl)-8-fluoro-2-phenyl-2,5-dihydro-pyrazolo[4,3-c]quinolin-3-one], the “EP Result” value with GABAA receptors is “Pos”. For the same compound, in assay [1], the half-inhibitory concentration (IC50) is less than 1 µM.
Turning to `O=c1c2c[nH]c3cc(N4CCOCC4)ccc3c-2nn1-c1ccccc1` [28h, 7-Morpholin-4-yl-2-phenyl-2,5-dihydro-pyrazolo[4,3-c]quinolin-3-one], in the assay on GABAA receptors, the “EP Result” value is recorded as “Pos”. Further, in assay [1], the half-inhibitory concentration (IC50) was less than 1 µM.
For `O=c1c2c[nH]c3cc(N4CCNCC4)c(F)cc3c-2nn1-c1ccsc1` [28p, 8-fluoro-7-(piperazin-1-yl)-2-(thiophen-3-yl)-2,5-dihydro-pyrazolo[4,3-c]quinolin-3-one] the same measures were “Neg” and less than 1 µM.
For `O=c1c2c[nH]c3c(F)c(N4CCNCC4)c(F)cc3c-2nn1-c1ccccc1` [44a, 6,8-Difluoro-2-phenyl-7-piperazin-1-yl-2,5-dihydro-pyrazolo[4,3-c]quinolin-3-one] the same measures were “Neg” and less than 1 µM.
For `CN1CCN(c2c(F)cc3c4nn(-c5ccccc5)c(=O)c-4c[nH]c3c2F)CC1` [44b, 6,8-Difluoro-7-(4-methyl-piperazin-1-yl)-2-phenyl-2,5-dihydro-pyrazolo [4,3-c]quinolin-3-one] the same measures were “Pos” and less than 1 µM.
In the case of `O=c1c2c[nH]c3c(F)c(N4CCOCC4)c(F)cc3c-2nn1-c1ccccc1` [44c, 6,8-Difluoro-7-(morpholin-4-yl)-2-phenyl-2,5-dihydro-pyrazolo[4,3-c]quinolin-3-one], in the assay with GABAA receptors, the “EP Result” value is “Pos”. In addition, the IC50 in assay [1] is less than 1 µM.
For `COc1ccc(-n2nc3c4cc(F)c(N5CCN(C)CC5)c(F)c4[nH]cc-3c2=O)cc1` [44d, 6,8-Difluoro-2-(4-methoxyphenyl)-7-(4-methylpiperazin-1-yl)-2,5-dihydro-pyrazolo[4,3-c]quinolin-3-one], in that order: “Pos” and less than 1 µM.

Source of the values: patent US8598159B2, “Therapeutic pyrazoloquinoline derivatives” (Dart Neuroscience (Cayman) Ltd., priority 2007, dated 2013).
